We go through three compounds from ChEMBL document CHEMBL3580538, “Cytotoxic and antiviral nitrobenzoyl sesquiterpenoids from the marine-derived fungus Aspergillus ochraceus Jcma1F17” (Medchemcomm, 2014).

Molecules are shown by their SMILES.

The nature of test [1]: Antiviral activity against Influenza A virus A/Hong Kong/8/68 H3N2 infected in MDCK cells assessed as reduction in virus-induced cytopathic effect after 3 days by CCK8 assay. It is filed as functional, cell-based, Influenza A virus (A/Hong Kong/8/1968([…])). The conditions noted are these: 72 h. Background: Protection from cytopathic effect is a common read-out in antiviral testing.

The nature of test [2]: Cytotoxicity against human BGC823 cells assessed as cell viability after 72 hrs by CCK8 assay. It is filed as functional, cell-based. The conditions noted are these: BGC-823, 72 h.
Test [3] can be described thus: Cytotoxicity against human HuH7 cells assessed as cell viability after 72 hrs by CCK8 assay. In kind it is functional, cell-based. The following applies: Huh-7, 72 h.
For test [4], the system named is Mycobacterium tuberculosis. Description: Antituberculosis activity against Mycobacterium tuberculosis H37Ra after 3 days by autoluminescent assay. It is filed as functional, organism-based.
Another test relates to K562. The test can be described thus: Cytotoxicity against human K562 cells assessed as cell viability after 72 hrs by CCK8 assay. The conditions noted are these: K562, 72 h. It is filed as functional, cell-based. (Tetrazolium assays rely on reduction of a dye to a coloured formazan, in cell work by metabolically active cells.)
The next test has as its system HeLa. Description: Cytotoxicity against human HeLa cells assessed as cell viability after 72 hrs by CCK8 assay. In kind it is functional, cell-based.
The subject of another test is U-937. The test can be described thus: Cytotoxicity against human U937 cells assessed as cell viability after 72 hrs by CCK8 assay. The following applies: U-937, 72 h. In kind it is functional, cell-based.
The subject of the next test is NCI-H1975. Description: Cytotoxicity against human NCI-H1975 cells assessed as cell viability after 72 hrs by CCK8 assay. It is filed as functional, cell-based. The conditions noted are these: NCI-H1975, 72 h.
In the next test the test system is HL-60. The test can be described thus: Cytotoxicity against human HL60 cells assessed as cell viability after 72 hrs by CCK8 assay. The conditions noted are these: HL-60, 72 h. In kind it is functional, cell-based.
For another test, the system named is Enterovirus. Description: Antiviral activity against EV71 infected in african green monkey Vero cells assessed as reduction in virus-induced cytopathic effect after 72 to 96 hrs by CCK8 assay. It is filed as functional, organism-based. The following applies: Enterovirus, 71, Vero.
The test system of a further test is MCF7. The test can be described thus: Cytotoxicity against human MCF7 cells assessed as cell viability after 72 hrs by CCK8 assay. In kind it is functional, cell-based. The conditions noted are these: MCF7, 72 h.
The test system of a further test is MOLT-4. Description: Cytotoxicity against human MOLT4 cells assessed as cell viability after 72 hrs by CCK8 assay. It is filed as functional, cell-based. The conditions noted are these: MOLT-4, 72 h.
The next test deals with A549. Description: Cytotoxicity against human A549 cells assessed as cell viability after 72 hrs by CCK8 assay. It is filed as functional, cell-based. The following applies: A549, 72 h.

For `CC(/C=C/C(=O)NO)=C\[C@@H](C)C(=O)c1ccc(N(C)C)cc1` [TRICHOSTATIN], the IC50 in [1] was 8 nM; in [2] it was 80 nM; in test [3], 90 nM; in test [4], “Not Active”; with K562, 160 nM; in the test with HeLa it was 100 nM. Further, the half-maximal inhibitory concentration (IC50) was 50 nM with U-937, 90 nM with NCI-H1975, 30 nM with HL-60 and 600 nM in the test on Enterovirus.
As to `C[C@]1(CO)CCC[C@@]2(C)[C@H]1[C@H](OC(=O)c1ccc([N+](=O)[O-])cc1)C=C1C(=O)OC[C@@]12O`, the IC50 is 6080 nM with MCF7; 50000 nM in [1]; 2780 nM in [2]; 2350 nM in test [3]; 2110 nM in the test on MOLT-4; “Not Active” in [4]. In addition, the IC50 amounted to 4760 nM with K562; 6350 nM in the test with HeLa; 3970 nM with U-937; 4630 nM with NCI-H1975; 2340 nM in the test with HL-60; 2860 nM with A549. In the test on Enterovirus, the IC50 came out at 50000 nM.
In the case of `C[C@]1(COC(=O)c2ccc([N+](=O)[O-])cc2)CCC[C@@]2(C)[C@H]1[C@H](O)C=C1C(=O)OC[C@@]12O`, the IC50 in the test on MCF7 was 4250 nM; in [1], 17000 nM; in [2] it was 2320 nM; in [3] it was 3280 nM; in the test with MOLT-4, 2390 nM; in test [4], “Not Active”. The IC50 in the test on K562 is 4330 nM; in the test on HeLa, 6120 nM; in the test on U-937, 1950 nM; in the test with NCI-H1975, 2080 nM; in the test with HL-60 it was 2440 nM; in the test with A549, 2410 nM. For the same compound, in the test on Enterovirus, the IC50 worked out at 9400 nM.

Broadly, the IC50 is the concentration that inhibits the measured activity by half.
